In PMC10495264 (Nature Cell Biology, 2023):
“And” between values parts separate entries of the source, which are not always exact repeats. Equal values may be shown once.

Tests used:
[1] = system: mTOR lysosomal localization; assay: Co-localization of mTOR with LAMP2, confocal microscopy; type: cell-based, human
ERK1/2 = ERK1/2 phosphorylation immunoblot; type: cell-based, human; conditions: ED Fig. 5k; relative to DMSO
Description: (§1) For standard SDS–PAGE and immunoblotting experiments, cells from a well of a 12-well plate were lysed in 250 μl of ice-cold Triton lysis buffer (50 mM Tris pH 7.5, 1% Triton X-100, 150 mM NaCl, 50 mM NaF, 2 mM Na-vanadate and 0.011 g ml^−1 β-glycerophosphate) supplemented with 1×PhosSTOP phosphatase inhibitors (cat. no. 4906837001, Roche) and 1×cOmplete protease inhibitors (cat. no. 11836153001, Roche) for 10 min on ice. The samples were clarified by centrifugation (20,000g, 15 min, 4 °C) and the supernatants were boiled in 1×SDS sample buffer (5×SDS sample buffer: 350 mM Tris–HCl pH 6.8, 30% glycerol, 600 mM DTT, 12.8% SDS and 0.12% bromophenol blue). The band intensities were quantified using the ImageJ software.
(§2) Data in graphs are shown as the mean ± s.e.m. *P < 0.05, **P < 0.005. Source numerical data and unprocessed blots are provided. Source data

mTORC1 [2] = assay: mTORC1 activity in HEK293T cells (WT, AMPKα1/2 KO, DEPDC5 and RagA/B triple KO), p-S6K^T389/S6K immunoblot; type: cell-based, human
Description: Source numerical data and unprocessed blots are provided. Source data
as §1
Data in graphs are shown as the mean ± s.e.m. *P < 0.05, **P < 0.005, ***P < 0.0005. Source numerical data and unprocessed blots are provided. Source data

mTORC1 [3] = assay: mTORC1 activity in U2OS cells, immunoblot; type: cell-based, human; conditions: Fasnall 25 μM 30 min; cerulenin 50 μM 2 or 4 h
mTORC1 [4] = assay: mTORC1 activity in mouse embryonic fibroblasts (MEFs), p-S6K^T389/S6K immunoblot; type: cell-based
mTORC2 = mTORC2 activity in HEK293FT cells, p-AKT^S473/AKT immunoblot; type: cell-based, human
Description: Phosphorylation of Ypk1 was used as the TORC2 readout. Phosphorylation of Snf1 was used as the AMPK activation readout. Total Snf1 was detected with an antibody to a histidine (His) stretch in Snf1. […] Source numerical data and unprocessed blots are provided. Source data
(§3) Amino-acid-starvation experiments were carried out as described before[42],[43]. […] For the lipid depletion experiments, cells were cultured in medium containing 10% charcoal-stripped FBS (A3382101, Thermo Fisher Scientific), instead of full FBS, for 24 h before treatments with FASN inhibitors were performed. For FA supplementation, each FA was first conjugated to 10% FA-free BSA (fraction V; cat. no. 10735086001, Roche) for 1 h at 50 °C in a 50:50 volumetric ratio. The BSA-conjugated C16:0, C16:1, C18:1 and C18:2 FAs (100 μM) were then added to the media both 16 h previous to and at the start of the treatment with FASN inhibitors.
as §1

mTORC1 [5] = assay: mTORC1 activity in HEK293FT cells (WT and knockout lines), phosphorylation of S6K, 4E-BP1, Grb10, TFEB by immunoblot; type: cell-based, human; conditions: for p-S6K(T389)/S6K: Replicates 1-3, DMSO = 1 (ED Fig. 8h)
Description: Data represent the median fluorescence intensity of OPP Alexa Fluor 488; n = 6 biological replicates from two independent experiments. b,c,e,g,i,k,l, Data are the mean ± s.e.m. *P < 0.05, **P < 0.005, ***P < 0.0005. […] Source numerical data and unprocessed blots are provided. Source data
as §3, §1

AMPK = AMPK and ACC1 phosphorylation immunoblot; type: cell-based, human; conditions: relative to DMSO
Description: as §1, §2

[6] = Fasnall 25 μM 30 min, cerulenin 50 μM 4 h

## Cc1sc2ncnc(NC3CCN(Cc4ccccc4)C3)c2c1C (stereo not shown) [Fasnall]
[1]; Fasnall 30', Replicate 2, individual cells (ED Fig. 8b)
  mTOR/LAMP2 colocalization (Manders' coefficient): 0.475 and 0.399 and 0.259 and 0.343 and 0.372 and 0.439 and 0.359 and 0.413 and 0.403 and 0.14 and 0.1 and 0.291 and 0.207 and 0.085 and 0.364 and 0.524 and 0.395 and 0.22 and 0.281 and 0.339 and 0.627 and 0.352 and 0.483 and 0.276 and 0.195 and 0.511 and 0.191
[1]; Fasnall 30', Replicate 4, individual cells (ED Fig. 8b)
  mTOR/LAMP2 colocalization (Manders' coefficient): 0.446 and 0.648 and 0.366 and 0.481 and 0.313 and 0.232 and 0.1 and 0.151 and 0.321 and 0.261 and 0.549 and 0.486 and 0.59 and 0.448 and 0.288 and 0.329 and 0.377 and 0.426 and 0.197 and 0.422 and 0.449 and 0.465 and 0.297 and 0.542 and 0.319 and 0.458 and 0.212 and 0.351 and 0.306
[1]; Fasnall 30', mean of pooled individual cells (ED Fig. 8b), DMSO mean 0.568258
  mTOR/LAMP2 colocalization (Manders' coefficient), Mean: 0.3868
[1]; Fasnall 60', Replicate 2, individual cells (ED Fig. 8b)
  mTOR/LAMP2 colocalization (Manders' coefficient): 0.202 and 0.487 and 0.43 and 0.287 and 0.399 and 0.342 and 0.295 and 0.326 and 0.268 and 0.605 and 0.328 and 0.333 and 0.315 and 0.375 and 0.636 and 0.498 and 0.603 and 0.513 and 0.443
[1]; Fasnall 60', Replicate 4, individual cells (ED Fig. 8b)
  mTOR/LAMP2 colocalization (Manders' coefficient): 0.425 and 0.202 and 0.399 and 0.49 and 0.499 and 0.282 and 0.303 and 0.344 and 0.361 and 0.405 and 0.518 and 0.461 and 0.434 and 0.504 and 0.271 and 0.298 and 0.295 and 0.41 and 0.416 and 0.567 and 0.365 and 0.689 and 0.431 and 0.398 and 0.488
[1]; Fasnall 60', mean of pooled individual cells (ED Fig. 8b), DMSO mean 0.568258
  mTOR/LAMP2 colocalization (Manders' coefficient), Mean: 0.4158
[1]; HEK293FT, 25 μM Fasnall or 50 μM cerulenin
  mTOR localization at lysosomes (co-localization with LAMP2): significant dissociation
[1]; Luc-expressing cells, Fasnall 30' (ED Fig. 8j), Luc DMSO mean 0.429851
  mTOR/LAMP2 colocalization (Manders' coefficient), Mean: 0.3242
[1]; RagA(QL)/C(SN)-expressing cells, Fasnall 30' (ED Fig. 8j), DMSO mean 0.528308
  mTOR/LAMP2 colocalization (Manders' coefficient), Mean: 0.4688
ERK1/2
  p-ERK(T202/Y204)/ERK, Mean: 0.525
mTORC1 [2]; ED Fig. 7b, AMPKa1/2 KO, 30', relative to AMPKa1/2 KO DMSO
  p-S6K(T389)/S6K, Mean: 0.6838
mTORC1 [2]; ED Fig. 7b, AMPKa1/2 KO, 60', relative to AMPKa1/2 KO DMSO
  p-S6K(T389)/S6K, Mean: 0.7858
mTORC1 [2]; ED Fig. 7b, WT, 30', relative to WT DMSO
  p-S6K(T389)/S6K, Mean: 0.4433
mTORC1 [2]; ED Fig. 7b, WT, 60', relative to WT DMSO
  p-S6K(T389)/S6K, Mean: 0.4902
mTORC1 [2]; ED Fig. 7g, DEPDC5+RagA/B KO, 30', relative to DEPDC5+RagA/B KO DMSO
  p-S6K(T389)/S6K, Mean: 0.2954
mTORC1 [2]; ED Fig. 7g, DEPDC5+RagA/B KO, 60', relative to DEPDC5+RagA/B KO DMSO
  p-S6K(T389)/S6K, Mean: 0.2391
mTORC1 [2]; ED Fig. 7g, WT, 30', relative to WT DMSO
  p-S6K(T389)/S6K, Mean: 0.4545
mTORC1 [2]; ED Fig. 7g, WT, 60', relative to WT DMSO
  p-S6K(T389)/S6K, Mean: 0.4895
mTORC1 [3]
  mTORC1 activity in U2OS: downregulates
mTORC1 [4]; ED Fig. 4b, relative to DMSO
  p-S6K(T389)/S6K, Mean: 0.4247
mTORC1 [4]; Fasnall 25 μM 30 min, cerulenin 50 μM 2 or 4 h
  mTORC1 activity in MEFs: downregulates
mTORC2; 25 μM Fasnall 30 min, DMSO = 1, n = 4, Fig. 3b
  p-AKT(S473)/AKT, Mean: 1.017
mTORC2; [6]
  phosphorylation of Akt (mTORC2 substrate): did not significantly alter
mTORC1 [5]; ED Fig. 3b, relative to DMSO
  p-Grb10(S476)/Grb10, Mean: 0.4881
mTORC1 [5]; ED Fig. 3c, relative to DMSO
  p-TFEB(S211)/TFEB, Mean: 0.3867
mTORC1 [5]; ED Fig. 4n, relative to DMSO
  p-S6K(T389)/S6K, Mean: 0.2327
mTORC1 [5]; [6]
  mTORC1 activity towards Grb10 and TFEB (cerulenin: also 4E-BP1): downregulates
mTORC1 [5]; HEK293FT cells, Fasnall, cerulenin or siFASN
  mTORC1 activity (phosphorylation of S6K, 4E-BP1, Grb10 and TFEB): suppressed
mTORC1 [5]; HEK293FT expressing FLAG-ACC1 S79A, Fasnall 25 μM, 30 min, respective DMSO = 1, Fig. 4b
  p-S6K(T389)/S6K, Mean: 0.3193
mTORC1 [5]; HEK293FT expressing FLAG-ACC1 WT, Fasnall 25 μM, 30 min, respective DMSO = 1, Fig. 4b
  p-S6K(T389)/S6K, Mean: 0.6407
mTORC1 [5]; HEK293FT expressing FLAG-Luc, Fasnall 25 μM, 30 min, respective DMSO = 1, Fig. 4b
  p-S6K(T389)/S6K, Mean: 0.6832
mTORC1 [5]; HEK293FT, 25 μM Fasnall 30', DMSO = 1, n = 6, Fig. 2g
  p-S6K(T389)/S6K, Mean: 0.526
mTORC1 [5]; HEK293FT, 25 μM Fasnall 60', DMSO = 1, n = 6, Fig. 2g
  p-S6K(T389)/S6K, Mean: 0.5445
mTORC1 [5]; Luc-expressing cells, Fasnall 30', DMSO = 1 (ED Fig. 8h)
  p-S6K(T389)/S6K, Mean: 0.4328
mTORC1 [5]; Luc-expressing cells, Fasnall 30'
  p-S6K(T389)/S6K: 0.4633 and 0.548 and 0.2872
mTORC1 [5]; Luc-expressing cells, Fasnall 60', DMSO = 1 (ED Fig. 8h)
  p-S6K(T389)/S6K, Mean: 0.3861
mTORC1 [5]; Luc-expressing cells, Fasnall 60'
  p-S6K(T389)/S6K: 0.4934 and 0.1817 and 0.4832
mTORC1 [5]; RagA(QL)/C(SN)-expressing cells, Fasnall 30', DMSO = 1 (ED Fig. 8h)
  p-S6K(T389)/S6K, Mean: 0.4794
mTORC1 [5]; RagA(QL)/C(SN)-expressing cells, Fasnall 30'
  p-S6K(T389)/S6K: 0.6415 and 0.4768 and 0.3198
mTORC1 [5]; RagA(QL)/C(SN)-expressing cells, Fasnall 60', DMSO = 1 (ED Fig. 8h)
  p-S6K(T389)/S6K, Mean: 0.4741
mTORC1 [5]; RagA(QL)/C(SN)-expressing cells, Fasnall 60'
  p-S6K(T389)/S6K: 0.6662 and 0.3714 and 0.3847
mTORC1 [5]; RagA/B KO HEK293FT, 25 μM Fasnall 30', respective DMSO = 1, n = 4, Fig. 5i
  p-S6K(T389)/S6K, Mean: 0.306
mTORC1 [5]; RagA/B KO HEK293FT, 25 μM Fasnall 60', respective DMSO = 1, n = 4, Fig. 5i
  p-S6K(T389)/S6K, Mean: 0.3694
mTORC1 [5]; TSC1 KO HEK293FT, 25 μM Fasnall 30 min, respective DMSO = 1, n = 6, Fig. 5n
  p-S6K(T389)/S6K, Mean: 0.4771
mTORC1 [5]; WT HEK293FT, 25 μM Fasnall 30', respective DMSO = 1, n = 4, Fig. 5i
  p-S6K(T389)/S6K, Mean: 0.3695
mTORC1 [5]; WT HEK293FT, 25 μM Fasnall 60', respective DMSO = 1, n = 4, Fig. 5i
  p-S6K(T389)/S6K, Mean: 0.3619
mTORC1 [5]; WT HEK293FT, 25 μM Fasnall 30 min, respective DMSO = 1, n = 6, Fig. 5n
  p-S6K(T389)/S6K, Mean: 0.3275
AMPK; ED Fig. 5b
  p-AMPK(T172)/AMPK, Mean: 4.063
AMPK; ED Fig. 5c
  p-ACC1(S79)/ACC1, Mean: 2.603
